Patent US7153869B2, “Substituted amino acids as erythropoietin mimetics” (priority 1998, dated 2006)
Like-named read-outs stand apart in the source and are kept apart here.

Target: T1, EBP-Ig (N-terminal 225 amino acids of the human EPO receptor joined to an Ig heavy chain) (Homo sapiens, UniProt P19235)
T1 construct: Ig heavy chain (fusion partner); made in house; host or cells: NSO cells (secreted into conditioned media)
T1 sequence (P19235 25-250 limits assumed): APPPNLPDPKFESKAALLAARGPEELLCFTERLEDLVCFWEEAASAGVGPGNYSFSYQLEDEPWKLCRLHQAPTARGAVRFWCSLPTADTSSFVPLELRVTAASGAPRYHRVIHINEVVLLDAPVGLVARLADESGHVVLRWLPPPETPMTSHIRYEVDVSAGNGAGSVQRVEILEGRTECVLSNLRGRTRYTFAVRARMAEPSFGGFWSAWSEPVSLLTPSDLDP
Experiment: Inhibition of [125I]EPO binding to immobilized EBP-Ig (EPO binding protein-Ig), scintillation Flash plate competition assay
Settings: for IC30 μM (Inhibition of EPO binding to EBP-Ig) / IC50: 0.5 nM [125I]EPO; for IC30 μM (Inhibition of EPO binding to EBP-Ig): 0–500 μM test compound; for IC50: read-out: IC50, μM (Inhibition of EPO binding to EBP-Ig), concentration reducing corrected total binding to 50%

[1] = read-out: % inh @ 50 μM (Inhibition of EPO binding to EBP-Ig)

## CC(=O)O.COC(=O)[C@H](CO)N(C/C=C/c1cccc(Oc2ccc(Cl)c(Cl)c2)c1)C/C=C/c1cccc(Oc2ccc(Cl)c(Cl)c2)c1 [compound 296]
50 μM compound, Table 16A
  EPO/EBP-Ig % inh @ 50 μM: 0%

## CC(=O)O.COC(=O)[C@H](CO)N(C/C=C/c1cccc(Oc2cccc(C(F)(F)F)c2)c1)C/C=C/c1cccc(Oc2cccc(C(F)(F)F)c2)c1 [compound 297]
50 μM compound, Table 16A
  EPO/EBP-Ig % inh @ 50 μM: 0%

## CC(=O)O.COC(=O)[C@H](CO)N(C/C=C/c1cccc(Oc2ccc(C(C)(C)C)cc2)c1)C/C=C/c1cccc(Oc2ccc(C(C)(C)C)cc2)c1 [compound 298]
50 μM compound, Table 16A
  EPO/EBP-Ig % inh @ 50 μM: 1%

## CC(C)(C)OC[C@@H](C(=O)O)N(C/C=C/c1ccc(-c2ccccc2)cc1)C/C=C/c1ccc(-c2ccccc2)cc1 [compound 301]
50 μM compound, Table 16A
  EPO/EBP-Ig % inh @ 50 μM: 25%

## CC(C)(C)OC[C@@H](C(=O)O)N(C/C=C/c1cccc(Oc2ccc(Cl)c(Cl)c2)c1)C/C=C/c1cccc(Oc2ccc(Cl)c(Cl)c2)c1 [compound 302]
50 μM compound, Table 16A
  EPO/EBP-Ig % inh @ 50 μM: 30%

## CC(C)(C)OC[C@@H](C(=O)O)N(C/C=C/c1cccc(Oc2cccc(C(F)(F)F)c2)c1)C/C=C/c1cccc(Oc2cccc(C(F)(F)F)c2)c1 [compound 303]
50 μM compound, Table 16A
  EPO/EBP-Ig % inh @ 50 μM: 21%

## CC(C)(C)OC[C@@H](C(=O)O)N(C/C=C/c1cccc(Oc2ccc(C(C)(C)C)cc2)c1)C/C=C/c1cccc(Oc2ccc(C(C)(C)C)cc2)c1 [compound 304]
50 μM compound, Table 16A
  EPO/EBP-Ig % inh @ 50 μM: 19%

## O=C(O)C(CO)N(CC=Cc1ccc(-c2ccccc2)cc1)CC=Cc1ccc(-c2ccccc2)cc1 (centres unmarked) [compound 305]
  IC30 μM (Inhibition of EPO binding to EBP-Ig): 35 µM
  IC50: 225 µM
[1]
  inhibition at 50 µM: 48%
read-out: EPO/EBP-Ig % inh @ 50 μM, 50 μM compound, Table 16A
  inhibition at 50 µM: 48%

## COC(=O)[C@H](COC(C)(C)C)N(C/C=C/c1ccccc1)C/C=C/c1ccccc1 [compound 306]
50 μM compound, Table 16A
  EPO/EBP-Ig % inh @ 50 μM: 21%

## O=C(O)C(F)(F)F.O=C(O)[C@H](CO)N(C/C=C/c1cccc(Oc2ccc(Cl)c(Cl)c2)c1)C/C=C/c1cccc(Oc2ccc(Cl)c(Cl)c2)c1 [compound 307]
50 μM compound, Table 16A
  EPO/EBP-Ig % inh @ 50 μM: 25%

## O=C(O)C(F)(F)F.O=C(O)[C@H](CO)N(C/C=C/c1cccc(Oc2cccc(C(F)(F)F)c2)c1)C/C=C/c1cccc(Oc2cccc(C(F)(F)F)c2)c1 [compound 308]
50 μM compound, Table 16A
  EPO/EBP-Ig % inh @ 50 μM: 25%

## CC(C)(C)c1ccc(Oc2cccc(/C=C/CN(C/C=C/c3cccc(Oc4ccc(C(C)(C)C)cc4)c3)[C@@H](CO)C(=O)O)c2)cc1.O=C(O)C(F)(F)F [compound 309]
50 μM compound, Table 16A
  EPO/EBP-Ig % inh @ 50 μM: 13%

## CC(=O)O.COC(=O)[C@H](CO)N(C/C=C/c1ccccc1)C/C=C/c1ccccc1 [compound 310]
50 μM compound, Table 16A
  EPO/EBP-Ig % inh @ 50 μM: 34%

## CC(C)(C)OC(=O)CN(C/C=C/c1cccc(Oc2ccccc2)c1)C/C=C/c1cccc(Oc2ccccc2)c1 [compound 311]
50 μM compound, Table 17A
  EPO/EBP-Ig % inh @ 50 μM: 5.3%

## O=C(O)CN(C/C=C/c1cccc(Oc2ccccc2)c1)C/C=C/c1cccc(Oc2ccccc2)c1 [compound 312]
  IC30 μM (Inhibition of EPO binding to EBP-Ig): 10 µM
  IC50: 85 µM
[1]
  inhibition at 50 µM: 45%
read-out: EPO/EBP-Ig % inh @ 50 μM, 50 μM compound, Table 17A
  inhibition at 50 µM: 45%

## O=C(NCCCC[C@H](NC/C=C/c1ccc(C(F)(F)F)cc1)C(=O)O)OCc1ccccc1Cl.O=C(O)C(F)(F)F [compound 313]
50 μM compound, Table 18A
  EPO/EBP-Ig % inh @ 50 μM: 28%

## COC(=O)[C@H](CCCCN)NC/C=C/c1ccc(C(=O)O)cc1 [compound 314]
50 μM compound, Table 18A
  EPO/EBP-Ig % inh @ 50 μM: 12%

## COC(=O)[C@H](CCCCNC(=O)OC(C)(C)C)NC/C=C/c1cccc(Oc2ccccc2)c1 [compound 316]
50 μM compound, Table 18A
  EPO/EBP-Ig % inh @ 50 μM: 20%

## COC(=O)[C@H](CCCCNC(=O)OC(C)(C)C)NC/C=C/c1cccc(Oc2ccc(C(C)(C)C)cc2)c1 [compound 317]
50 μM compound, Table 18A
  EPO/EBP-Ig % inh @ 50 μM: 13%

## COC(=O)[C@H](CCCCNC(=O)OCc1ccccc1)NC/C=C/c1ccccc1 [compound 318]
50 μM compound, Table 18A
  EPO/EBP-Ig % inh @ 50 μM: 14%
